From patent US20210238162A1, “CHEMICAL COMPOUNDS” (GlaxoSmithKline Intellectual Property Development Limited, priority 2015, published 2021)
Structures can show the parent of a compound that is named as a salt.

The compounds below were run against T1, haematopoietic prostaglandin D synthase (H-PGDS) (Homo sapiens, UniProt O60760) (assay: H-PGDS RapidFire High Throughput Mass Spectrometry Assay). Conditions: H-PGDS RapidFire MS assay, mean pIC50; read-out: Potency Range (mean pIC50) (converted).
T1 construct: Full length human H-PGDS cDNA (Invitrogen Ultimate ORF IOH13026) was amplified by PCR; made in house; host or cells: E. coli BL21 (DE3*), vector pET22b+
T1 sequence (O60760 whole entry): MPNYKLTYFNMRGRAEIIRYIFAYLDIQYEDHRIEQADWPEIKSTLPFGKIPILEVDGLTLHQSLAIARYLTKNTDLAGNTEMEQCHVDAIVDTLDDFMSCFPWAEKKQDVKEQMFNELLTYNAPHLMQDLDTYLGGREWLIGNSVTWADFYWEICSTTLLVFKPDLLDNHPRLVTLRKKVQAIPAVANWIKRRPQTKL
Assay type: biochemical
How it was run: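 PGH2 (~10 μM burst) generated in situ from arachidonic acid by FLAG-tagged human COX-2 (Sf9-expressed), then converted to PGD2 by full-length human His-tagged H-PGDS from E. coli. PGD2 and PGF2α (substrate surrogate) quantified by RapidFire SPE-triple quadrupole MS; percent conversion calculated.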

SMILES	IC50 [µM]
CC(C)(O)[C@H]1CC[C@H](NC(=O)c2cnc3c4c(ccc3c2)CCO4)CC1 [Example 113, N-(trans-4-(2-Hydroxypropan-2-yl)cyclohexyl)-2,3-dihydrofuro[3,2-h]quinoline-7-carboxamide]	0.01 to 0.0794
COc1cc2ncc(C(=O)NC3CCN(c4nnnn4C)CC3)cc2cc1C#N [Example 114, 6-Cyano-7-methoxy-N-(1-(1-methyl-1H-tetrazol-5-yl)piperidin-4-yl)quinoline-3-carboxamide]	0.1 to 1
CC(C)Oc1ccc2cc(C(=O)NC3CCN(c4nnnn4C)CC3)cnc2c1 [Example 115, 7-Isopropoxy-N-(1-(1-methyl-1H-tetrazol-5-yl)piperidin-4-yl)quinoline-3-carboxamide]	0.1 to 1
CC(C)(O)[C@H]1CC[C@H](NC(=O)c2cnc3cc(OC(F)F)c(Cl)cc3c2)CC1 [Example 116, (6-Chloro-7-(difluoromethoxy)-N-(trans-4-(2-hydroxypropan-2-yl)cyclohexyl)quinoline-3-carboxamide, trifluoroacetate]	< 0.01
CC(C)(O)[C@H]1C[C@H](NC(=O)c2cnc3cc(OC(F)F)c(Cl)cc3c2)C1 [Example 118, 6-Chloro-7-(difluoromethoxy)-N-(trans-3-(2-hydroxypropan-2-yl)cyclobutyl)quinoline-3-carboxamide]	< 0.01
CC(C)N1CC[C@H](NC(=O)c2cnc3cc(OC(F)F)c(Cl)cc3c2)C1=O [Example 119, (S)-6-Chloro-7-(difluoromethoxy)-N-(1-isopropyl-2-oxopyrrolidin-3-yl)quinoline-3-carboxamide]	0.01 to 0.0794
O=C(N[C@H]1CCN(CC2CC2)C1=O)c1cnc2cc(OC(F)F)c(Cl)cc2c1 [Example 120, (S)-6-Chloro-N-(1-(cyclopropylmethyl)-2-oxopyrrolidin-3-yl)-7-(difluoromethoxy)quinoline-3-carboxamide]	0.01 to 0.0794
O=C(N[C@H]1CC[C@H](C2(O)CC2)CC1)c1cnc2cc(OC(F)F)c(Cl)cc2c1 [Example 121, 6-Chloro-7-(difluoromethoxy)-N-(trans-4-(1-hydroxycyclopropyl)cyclohexyl)quinoline-3-carboxamide]	< 0.01
CC(C)(O)CO[C@H]1CC[C@H](NC(=O)c2cnc3cc(OC(F)F)c(Cl)cc3c2)CC1 [Example 122, 6-Chloro-7-(difluoromethoxy)-N-(trans-4-(2-hydroxy-2-methylpropoxy)cyclohexyl)quinoline-3-carboxamide]	< 0.01
O=C(N[C@H]1CC[C@H](OCC2(O)CC2)CC1)c1cnc2cc(OC(F)F)c(Cl)cc2c1 [Example 123, 6-Chloro-7-(difluoromethoxy)-N-(trans-4-((1-hydroxycyclopropyl)methoxy)cyclohexyl)quinoline-3-carboxamide]	< 0.01
CC(C)C(O)CO[C@H]1CC[C@H](NC(=O)c2cnc3cc(OC(F)F)c(Cl)cc3c2)CC1 (stereo partly drawn) [Example 127, 6-Chloro-7-(difluoromethoxy)-N-(trans-4-(2-hydroxy-3-methylbutoxy)cyclohexyl)quinoline-3-carboxamide]	< 0.01
Cn1nc(C2CC2)cc1NC(=O)c1cnc2cc(OC(F)F)c(Cl)cc2c1 [Example 128, 6-Chloro-N-(3-cyclopropyl-1-methyl-1H-pyrazol-5-yl)-7-(difluoromethoxy)quinoline-3-carboxamide]	0.01 to 0.0794
C[C@@H](N[C@H]1CC[C@H](NC(=O)c2cnc3cc(OC(F)F)c(Cl)cc3c2)CC1)C(F)F [Example 129, 6-Chloro-7-(difluoromethoxy)-N-(trans-4-(((R)-1,1-difluoropropan-2-yl)amino)cyclohexyl)quinoline-3-carboxamide]	< 0.01
C[C@H](N[C@H]1CC[C@H](NC(=O)c2cnc3cc(OC(F)F)c(Cl)cc3c2)CC1)C(F)F [Example 130, 6-Chloro-7-(difluoromethoxy)-N-(trans-4-(((S)-1,1-difluoropropan-2-yl)amino)cyclohexyl)quinoline-3-carboxamide]	< 0.01
O=C(N[C@H]1CC[C@H](N[C@@H](CO)C(F)(F)F)CC1)c1cnc2cc(OC(F)F)c(Cl)cc2c1 [Example 131, 6-Chloro-7-(difluoromethoxy)-N-(trans-4-(((S)-1,1,1-trifluoro-3-hydroxypropan-2-yl)amino)cyclohexyl)quinoline-3-carboxamide]	< 0.01
O=C(N[C@H]1CC[C@H](N2CC(F)C2)CC1)c1cnc2cc(OC(F)F)c(Cl)cc2c1 [Example 132, 6-Chloro-7-(difluoromethoxy)-N-(trans-4-(3-fluoroazetidin-1-yl)cyclohexyl)quinoline-3-carboxamide]	< 0.01
O=C(N[C@H]1CC[C@H](N2CC(O)(C(F)(F)F)C2)CC1)c1cnc2cc(OC(F)F)c(Cl)cc2c1 [Example 134, 6-Chloro-7-(difluoromethoxy)-N-(trans-4-(3-hydroxy-3-(trifluoromethyl)azetidin-1-yl)cyclohexyl)quinoline-3-carboxamide]	< 0.01
O=C(N[C@H]1CC[C@H](N[C@H](CO)C(F)(F)F)CC1)c1cnc2cc(OC(F)F)c(Cl)cc2c1 [Example 135, 6-Chloro-7-(difluoromethoxy)-N-(trans-4-(((R)-1,1,1-trifluoro-3-hydroxypropan-2-yl)amino)cyclohexyl)quinoline-3-carboxamide]	< 0.01
NC(=O)CO[C@H]1CC[C@H](NC(=O)c2cnc3cc(OC(F)F)c(Cl)cc3c2)CC1 [Example 136, N-(trans-4-(2-Amino-2-oxoethoxy)cyclohexyl)-6-chloro-7-(difluoromethoxy)quinoline-3-carboxamide]	< 0.01
C[C@]1(O)C[C@H](NC(=O)c2cnc3cc(OC(F)F)c(Cl)cc3c2)C1 [Example 137, 6-Chloro-7-(difluoromethoxy)-N-((1r,3r)-3-hydroxy-3-methylcyclobutyl)quinoline-3-carboxamide]	0.01 to 0.0794
C[C@]1(O)C[C@@H](NC(=O)c2cnc3cc(OC(F)F)c(Cl)cc3c2)C1 [Example 138, 6-Chloro-7-(difluoromethoxy)-N-((1s,3s)-3-hydroxy-3-methylcyclobutyl)quinoline-3-carboxamide]	0.01 to 0.0794
CS(=O)(=O)CCO[C@H]1CC[C@H](NC(=O)c2cnc3cc(OC(F)F)c(Cl)cc3c2)CC1 [Example 139, 6-Chloro-7-(difluoromethoxy)-N-(trans-4-(2-(methylsulfonyl)ethoxy)cyclohexyl)quinoline-3-carboxamide]	< 0.01
O=C(N[C@H]1C[C@H](O)C1)c1cnc2cc(OC(F)F)c(Cl)cc2c1 [Example 140, 6-Chloro-7-(difluoromethoxy)-N-(trans-3-hydroxycyclobutyl)quinoline-3-carboxamide]	0.01 to 0.0794
NS(=O)(=O)O[C@H]1CC[C@H](NC(=O)c2cnc3cc(OC(F)F)c(Cl)cc3c2)CC1 [Example 141, trans-4-(6-Chloro-7-(difluoromethoxy)quinoline-3-carboxamido)cyclohexyl sulfamate]	< 0.01
O=C1CC(NC(=O)c2cnc3cc(OC(F)F)c(Cl)cc3c2)C1 [Example 142, 6-Chloro-7-(difluoromethoxy)-N-(3-oxocyclobutyl)quinoline-3-carboxamide]	0.01 to 0.0794
C[C@]1(O)CC[C@H](NC(=O)c2cnc3cc(OC(F)F)c(Cl)cc3c2)CC1 [Example 143, 6-Chloro-7-(difluoromethoxy)-N-((1r,4r)-4-hydroxy-4-methylcyclohexyl)quinoline-3-carboxamide]	< 0.01

Same assay, conditions: in at least one experimental run; read-out: H-PGDS pIC50 value (converted)

SMILES	IC50 [µM]
CC(C)(O)[C@H]1CC[C@H](NC(=O)c2cnc3cc(OC(F)F)c(Cl)cc3c2)CC1 [Example 116, (6-Chloro-7-(difluoromethoxy)-N-(trans-4-(2-hydroxypropan-2-yl)cyclohexyl)quinoline-3-carboxamide, trifluoroacetate]	0.00251
CC(C)(O)[C@H]1C[C@H](NC(=O)c2cnc3cc(OC(F)F)c(Cl)cc3c2)C1 [Example 118, 6-Chloro-7-(difluoromethoxy)-N-(trans-3-(2-hydroxypropan-2-yl)cyclobutyl)quinoline-3-carboxamide]	0.01
C[C@]1(O)C[C@@H](NC(=O)c2cnc3cc(OC(F)F)c(Cl)cc3c2)C1 [Example 138, 6-Chloro-7-(difluoromethoxy)-N-((1s,3s)-3-hydroxy-3-methylcyclobutyl)quinoline-3-carboxamide]	0.02
O=C1CC(NC(=O)c2cnc3cc(OC(F)F)c(Cl)cc3c2)C1 [Example 142, 6-Chloro-7-(difluoromethoxy)-N-(3-oxocyclobutyl)quinoline-3-carboxamide]	0.0398
